Assay results taken from patent publication US8609723B2 (Beijing Dingguochangsheng Biotech., Co., Ltd., priority 2008, dated 2013).

Legend:
[1] = system: 5-HT, NA, DA and metabolites thereof in hippocampus; assay: Detection of monoamine and metabolites thereof in brains of mice; type: in vivo; settings: 18.4 mg/kg
Protocol: Hippocampus was collected immediately on ice, weighed, put into an Eppendorf tube and kept in refrigeratory at −80° C. To each 100 mg brain tissue, 200 μl ice-cooled Solution A (0.4 mol/L HCLO4) was added. The mixture was homogenized ultrasonically in a ice bath, kept in dark at 4° C. for 60 min, and centrifuged for 20 min (12,000 rpm, 4° C.). […] The mixture was vortexed thoroughly for 10 min, kept at 4° C. in dark for 60 min, and centrifuged again for 20 min (12,000 rpm, 4° C.). The supernatant was collected and measured for the content of monoamine. The contents of 5-HT, NA, DA, 5-HIAA and DOPAC in brain tissue were determined by High Effective Liquid Phase Electrochemistry. […] The contents of monoamine and metabolites thereof in brain tissue were shown as ng/g wet tissue weight.

[2] = system: chronically stressed rats; assay: Sugar water test of rats (chronic stress model); type: in vivo; settings: table title says (%)
From the text: (§1) The rats in the normal control group were raised normally under a condition without any stimulation except for weighing body weight, measuring body temperature, and subjected to sugar test. All of other groups were subjected to stimulations of same type and same strength. During the experiment, different types of stimulations were applied in an unpredictable manner, and the same type of stimulation was enhanced each time.
(§2) The chronic stress course was 20 days in total, once per day, from 9:00 AM to 2:00 PM. The stress protocol was shown as follows: horizontally shaking at a high speed for 45 min; nipping tails (1 cm from the tail root): 1 min; depriving of water for 24 h; forbidding moving for 1.5 h; fasting for 24 h; stimulating with ice water (water temperature: 10° C.) for 5 min; electric shocking (1 mA, time course: is, 1 shock/min) the bottoms of feet for 30 min; changing cages and raising separately for 24 h; forbidding moving for 2 h; nipping tails (1 cm from the root of tail) for 1 min; depriving of water for 24 h; horizontally shaking at a high speed for 1.5 h; fasting for 24 h; nipping tails (1 cm from the tail root): 1 min; electric shocking (1 mA, time course: 1 s, 1 shock/min) the bottoms of feet for 40 min; stimulating with ice water for 5 min; changing cages and raising separately for 24 h; horizontally shaking at a high speed for 60 min; electric shocking (1 mA, time course: 1 s, 1 shock/min) the bottoms of feet for 50 min; depriving of water for 24 h; forbidding moving for 2.5 h; and 24 h social isolation.
Before this experiment, animals were trained to adapt to drink sugar water in a to quite room. Two bottles were placed simultaneously into each cage. For the first 24 h, these two bottles were both filled with 1% sugar water; and for the next 24 h, one of them was filled with 1% sugar water and the other was filled with pure water. Then after 23-hour water deprivation, the animals were tested for basic sugar water/pure water consumption. One bottle of 1% sugar water and one bottle of pure water were provided to each rat simultaneously. One hour later, the two bottles were weighed, and the total liquid consumption, sugar water consumption, pure water consumption, and the sugar water preference=sugar water consumption/total liquid consumption×100% were calculated, respectively. The experiment was performed after continuous administration of curcumin for 14 days.

[3] = system: S-180 sarcoma cells; assay: Antitumor experiment of tumor S-180-bearing mice; type: in vivo; settings: 7-day dosage by single administration, 7 days
From the text: During the experiment, the mice were inoculated with S-180 sarcoma cells (×10^7) in armpits. […] Seven days later, the mice were sacrificed by decollation. The tumors were removed, and the mice and the tumors were weighed separately.

[4] = system: S-180 cells; assay: Effect on apoptosis of tumor cells, cell cycle by flow cytometry; type: in vivo, mice; settings: sarcoma cell cycle, S-180 tumor fluid, 7 days
From the text: During the experiment, the mice were inoculated with S-180 cells (×10^7) in armpits. Seven days later, the mice were sacrificed by decollation and the tumors were removed. Tumor fluid was collected from tumors, and used for determining cell cycle by flow cytometry after ethanol fixation.

[5] = system: chronically stressed rats; assay: Measurement of body temperature of chronically stressed rats; type: in vivo; settings: for Body temperature after stress: chronic stress 21 days
From the text: as §1
as §2, with “The” for “The chronic stress course was 20 days in total, once per day, from 9:00 AM to 2:00 PM. The”
The front part of a digital thermometer was coated with liquid paraffin, and then inserted into the anus of a rat with a depth of approximately 1 cm. The temperature was read twice accordingly and averaged.

[6] = system: male ICR mice; assay: Tail suspension test in mice; type: in vivo; settings: 18.4 mg/kg single administration, vs control group
Protocol: The tail suspension test was carried out for each of these groups on Days 3, 7 and 14 after administration, except that such experiment was not performed for the curcumin group on Day 14. Tails of the mice were taped on a special iron stand at 1 cm from the tips, whilst keeping the mice staying at a height of 50 cm from ground. Performance of the mice was observed within 6 min, and the accumulative immobile time within the last 4 min was recoded for each mouse.

[7] = first line of group (Day 3 presumed)
[8] = second line of group (Day 7 presumed)
[9] = 4.6 mg/kg, the values are: sugar water preference
[10] = 4.6 mg/kg subcutaneous once every 7 days
[11] = 9.2 mg/kg subcutaneous once every 7 days
[12] = 18.4 mg/kg subcutaneous once every 7 days

In the case of “curcumin decanoate [long acting curcumin]”, the “Hippocampus 5-HIAA” value [1, 7] is reported as 183.4 ± 14.2 ng/g, the “Hippocampus 5-HIAA/5-HT” value [1, 7] is reported as 0.25 ± 0.02 and the “Hippocampus 5-HT” value [1, 7] is reported as 713.1 ± 19.2 ng/g. The “Hippocampus DOPAC” value [1, 7] was 13.1 ± 2.0 ng/g, the “Hippocampus Dopamine” value [1, 7] was 20.3 ± 5.9 ng/g and the “Hippocampus Noradrenaline” value [1, 7] was 369.9 ± 12.3 ng/g. The “Hippocampus 5-HIAA” value [1, 8] was 186.3 ± 8.4 ng/g, the “Hippocampus 5-HIAA/5-HT” value [1, 8] was 0.25 ± 0.03 and the “Hippocampus 5-HT” value [1, 8] was 725.0 ± 30.4 ng/g. For the same substance, the “Hippocampus DOPAC” value [1, 8] was 14.6 ± 2.1 ng/g, the “Hippocampus Dopamine” value [1, 8] was 21.2 ± 5.6 ng/g and the “Hippocampus Noradrenaline” value [1, 8] was 372.2 ± 21.6 ng/g. For the same substance, the Sugar water volume after stress [2, 9] was 54.1 ± 4.7%, the Sugar water volume before stress [2, 9] was 60.2 ± 9.2% and the “Sugar water volume after stress” value ([2]; 9.2 mg/kg) was 72.8 ± 3.1 %. For the same substance, the Sugar water volume before stress ([2]; 9.2 mg/kg, the values are: sugar water preference) was 60.4 ± 9.2%, the “Sugar water volume after stress” value ([2]; 18.4 mg/kg) was 71.6 ± 2.3 % and the Sugar water volume before stress ([2]; 18.4 mg/kg, the values are: sugar water preference) was 66.8 ± 8.6%. The “inhibitory rate of tumors” value ([3]; high dosage group) was 50.1%, the “inhibitory rate of tumors” value ([3]; low dosage group) was 28.5% and the “inhibitory rate of tumors” value ([3]; medium dosage group) was 57.8%. For the same substance, the “APO % (apoptosis level of tumor cells)” value [4] was 44.7%, the G1 % [4] was 64.9% and the G2 % [4] was 1.0%. The S % [4] was 34.1%, the “Body temperature before stress” value [5, 10] was 37.06 ± 0.125 °C and the “Body temperature after stress” value [5, 10] was 37.40 ± 0.079 °C. The “Body temperature before stress” value [5, 11] was 37.06 ± 0.158 °C, the “Body temperature after stress” value [5, 11] was 37.45 ± 0.074 °C and the “Body temperature before stress” value [5, 12] was 37.00 ± 0.122 °C. For the same substance, the “Body temperature after stress” value [5, 12] was 37.48 ± 0.088 °C, the “reduced the accumulative immobile time (tail suspension)” value (shortened to “reduced the accumulative immobile time”) ([6]; 3 days after administration) was 50.7% and the “reduced the accumulative immobile time” value ([6]; 7 days after administration) was 59.5%. The “reduced the accumulative immobile time” value ([6]; 14 days after administration) was 31.8%.
